From ChEMBL document CHEMBL1158721, “Brasilibactin A, a cytotoxic compound from actinomycete Nocardia brasiliensis” (J Nat Prod, 2005)
Values after ≈ are worked out from the molar mass of the structure shown.

What was measured:
Type in all cases: functional, cell-based
L1210 = assay: Cytotoxicity against mouse L1210 cells
KB = assay: Cytotoxicity against human KB cells
HL-60 = assay: Induction of apoptosis in human HL60 cells assessed as increase in caspase3 activity

CCCCCCCCCCCCCCC[C@H](OC(=O)[C@@H](CCCCN(O)C=O)NC(=O)[C@H]1COC(c2ccccc2O)=N1)[C@@H](C)C(=O)N[C@@H]1CCCCN(O)C1=O [BRASILIBACTIN A]
IC50 (L1210): 0.02 µg/mL (≈ 0.0249 µM) | IC50 (KB): 0.04 µg/mL (≈ 0.0499 µM) | Activity (HL-60): Dose-dependent effect
